Each compound was assayed against T1, TACE (Homo sapiens, UniProt P78536) (assay: Procedure for Measuring TACE Inhibition). Settings: 1 µM; Examples 110-168.
T1 construct: purchased Immunex
Format: biochemical
Experimental: Using 96-well black microtiter plates, each well receives a solution composed of 10 µL TACE (Immunex, final concentration 1µg/mL), 70µL Tris buffer, pH 7.4 containing 10% glycerol (final concentration 10 mM), and 10 µL of test compound solution in DMSO (final concentration 1µM, DMSO concentration <1%) and incubated for 10 minutes at room temperature. The reaction is initiated by addition of a fluorescent peptidyl substrate (final concentration 100 µM) to each well and then shaking on a shaker for 5 sec. The reaction is read (excitation 340 nm, emission 420 nm) for 10 min. and the increase in fluorescence over time is plotted as a linear line. The slope of the line is calculated and represents the reaction rate. The linearity of the reaction rate is confirmed (r^2 >0.85). The mean (x±sem) of the control rate is calculated and compared for statistical significance (p<0.05) with drug-treated rates using Dunnett's multiple comparison test.

T1 sequence (P78536 215-824): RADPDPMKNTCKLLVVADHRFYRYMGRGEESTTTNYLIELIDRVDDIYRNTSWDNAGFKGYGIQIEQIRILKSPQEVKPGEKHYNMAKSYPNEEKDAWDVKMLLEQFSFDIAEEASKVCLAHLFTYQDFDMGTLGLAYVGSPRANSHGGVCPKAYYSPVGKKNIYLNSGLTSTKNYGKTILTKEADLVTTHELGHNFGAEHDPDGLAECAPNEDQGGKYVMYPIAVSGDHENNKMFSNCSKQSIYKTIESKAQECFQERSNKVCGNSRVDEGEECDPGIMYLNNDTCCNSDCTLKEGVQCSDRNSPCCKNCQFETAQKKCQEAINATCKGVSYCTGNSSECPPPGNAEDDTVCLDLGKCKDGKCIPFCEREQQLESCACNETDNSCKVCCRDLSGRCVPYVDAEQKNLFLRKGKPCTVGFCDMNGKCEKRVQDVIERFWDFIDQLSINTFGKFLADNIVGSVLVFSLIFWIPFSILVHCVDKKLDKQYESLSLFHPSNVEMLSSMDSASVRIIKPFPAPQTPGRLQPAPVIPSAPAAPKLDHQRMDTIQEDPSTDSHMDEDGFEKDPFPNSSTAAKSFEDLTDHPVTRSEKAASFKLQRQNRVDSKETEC

Compound | TACE % inhibition at 1 µM
(1-Hydroxycarbamoyl-propane-1-sulfonyl)-acetic acid hydroxyamide [Example 120] | 19.9%

Same assay, conditions: 1 µM; Examples 169-240

Compound | TACE % inhibition at 1 µM
2,5-Dichloro-thiophene-3-sulfonic acid 4-(1-hydroxycarbamoyl-heptylsulfinyl)-hydroxyamide [Example 236] | 35%
CCCCCCC(Sc1ccc(OCCN2CCNCC2)cc1)C(=O)NO (centres unmarked) [Example 201, 2-[4-(2-Piperazine-1-yl-ethoxy)-benzenesulfanyl]-octanoic acid hydroxyamide] | 50.9%
Ethanesulfonic acid 4(1-hydroxycarbamoyl-heptylsulfanyl)-hydroxyamide [Example 234] | 18.4%
CCCCCCC(Sc1ccc(OCCCC)cc1)C(=O)NO (centres unmarked) [Example 200, 2-(4-Butoxy-benzenesulfanyl)-octanoic acid hydroxyamide] | 37.9%
3-(1-Hydroxycarbamoyl-heptylsulfanyl)-benzoic acid hydroxyamide [Example 184] | 24.8%
3-(1-Hydroxycarbamoyl-heptylsulfinyl)-benzoicacid hydroxyamide [Example 188] | 16.2%

Same assay, conditions: Examples 169-240; read-out: TACE IC50

IC50 | Compound
404 nM | CCCCCCC(C(=O)NO)S(=O)(=O)c1ccc(-c2ccc(Cl)s2)cc1 (centres unmarked) [Example 224, 2-[4-(5-Chloro-thiophen-2-yl)-benzenesulfonyl]-octanoic acid hydroxyamide]
212 nM | CCCCCCC(C(=O)NO)[S+]([O-])c1ccc(-c2ccc(Cl)s2)cc1 (centres unmarked) [Example 222, 2-[4-(5-Chloro-thiophen-2-yl)-benzenesulfinyl]-octanoic acid hydroxyamide]
895 nM | CCCCCCC(C(=O)NO)[S+]([O-])c1ccc(OC2CCN(C)C2)cc1 (centres unmarked) [Example 215, 2-[4-(1-Methyl-pyrrolidin-3-yloxy)-benzenesulfinyl]-octanoic acid hydroxyamide]
380 nM | CCCCCCC(C(=O)NO)S(=O)(=O)c1ccc(OC2CCN(C)C2)cc1 (centres unmarked) [Example 218, 2-[4-(1-Methyl-pyrrolidin-3-yloxy)-benzenesulfonyl]-octanoic acid hydroxyamide]
96.6 nM | CCCCCCC(Sc1ccc(NCCCN2CCOCC2)cc1)C(=O)NO (centres unmarked) [Example 225, 2-[4-(3-morpholin-4-yl-propylamino)-phenylsulfanyl]-octanoic acid hydroxyamide]
146 nM | CCCCCCC(C(=O)NO)[S+]([O-])c1ccc(-c2ccc(Cl)cc2)cc1 (centres unmarked) [Example 221, 2-(4'-Chloro-biphenyl-4-sulfinyl)-octanoic acid hydroxyamide]

Same assay, conditions: read-out: TACE % inhibition at 1 µM; 1 µM; Examples 169-240

Compound | inhibition at 1 µM
CCCCCCC(C(=O)NO)S(=O)(=O)c1ccc(OCCCC)cc1 (centres unmarked) [Example 209, 2-(4-Butoxy-benzenesulfonyl)-octanoic acid hydroxyamide] | 31.2%
CCCCCCC(C(=O)NO)[S+]([O-])c1ccc(OCCCC)cc1 (centres unmarked) [Example 205, 2-(4-Butoxy-benzenesulfinyl)-octanoic acid hydroxyamide] | 84%

More lines, now with the values ahead:

inhibition at 1 µM | Compound
75% | CCCCCCC(C(=O)NO)S(=O)(=O)c1ccc(-c2ccc(Cl)s2)cc1 (centres unmarked) [Example 224, 2-[4-(5-Chloro-thiophen-2-yl)-benzenesulfonyl]-octanoic acid hydroxyamide]
89.3% | CCCCCCC(C(=O)NO)[S+]([O-])c1ccc(-c2ccc(Cl)s2)cc1 (centres unmarked) [Example 222, 2-[4-(5-Chloro-thiophen-2-yl)-benzenesulfinyl]-octanoic acid hydroxyamide]
60.1% | CCCCCCC(C(=O)NO)[S+]([O-])c1ccc(OC2CCN(C)C2)cc1 (centres unmarked) [Example 215, 2-[4-(1-Methyl-pyrrolidin-3-yloxy)-benzenesulfinyl]-octanoic acid hydroxyamide]
68.7% | CCCCCCC(C(=O)NO)S(=O)(=O)c1ccc(OC2CCN(C)C2)cc1 (centres unmarked) [Example 218, 2-[4-(1-Methyl-pyrrolidin-3-yloxy)-benzenesulfonyl]-octanoic acid hydroxyamide]
-6.3% | CCCCCCC(C(=O)NO)[S+]([O-])c1ccc(OCCCc2ccccn2)cc1 (centres unmarked) [Example 207, 2-[4-(3-Pyridin-2-yl-propoxy)-benzenesulfinyl]-octanoic acid hydroxyamide]
7.75% | CCCCCCC(C(=O)NO)[S+]([O-])c1ccc(OCc2ccccc2)cc1 (centres unmarked) [Example 204, 2-(4-Benzyloxy-phenylsulfinyl)-octanoic acid hydroxyamide]
20.7% | CCCCCCC(C(=O)NO)S(=O)(=O)c1ccc(OCCCc2ccccn2)cc1 (centres unmarked) [Example 211, 2-[4-(3-Pyridin-2-yl-propoxy)-benzenesulfonyl]-octanoic acid hydroxyamide]
67.7% | CCCCCCC(C(=O)NO)S(=O)(=O)c1ccc(OCc2ccccc2)cc1 (centres unmarked) [Example 208, 2-(4-Benzyloxy-phenylsulfonyl)-octanoic acid hydroxyamide]
10.6% | CCCCCCC(Sc1ccc(OCCCCCO)cc1)C(=O)NO (centres unmarked) [Example 202, 2-[4-(5-Hydroxy-pentyloxy)-phenylsulfanyl]-octanoic acid hydroxyamide]
114% | CCCCCCC(Sc1ccc(NCCCN2CCOCC2)cc1)C(=O)NO (centres unmarked) [Example 225, 2-[4-(3-morpholin-4-yl-propylamino)-phenylsulfanyl]-octanoic acid hydroxyamide]
7.3% | CCCCCCC(C(=O)NO)S(=O)(=O)c1ccc(OC(CC)CC)cc1 (centres unmarked) [Example 219, 2-[4-(1-Ethyl-propoxy)-benzenesulfonyl]-octanoic acid hydroxyamide]
98.9% | CCCCCCC(C(=O)NO)[S+]([O-])c1ccc(-c2ccc(Cl)cc2)cc1 (centres unmarked) [Example 221, 2-(4'-Chloro-biphenyl-4-sulfinyl)-octanoic acid hydroxyamide]

Same assay, conditions: read-out: TACE % inhibition at 1 micromolar

Compound | inhibition at 1 µM
COc1ccc(S(=O)(=O)C(C)(Cc2ccc(OCCN(C(C)C)C(C)C)cc2)C(=O)NO)cc1 (centres unmarked) [Example 20, N-Hydroxy-2-(4-methoxy-benzenesulfonyl)-2-methyl-3-[4-(2-N,N-diisopropylamino-ethoxy)-phenyl]-propionamide] | 31%
CCN(CC)CCOc1ccc(CC(C)(C(=O)NO)S(=O)(=O)c2ccc(OC)cc2)cc1 (centres unmarked) [Example 21, N-Hydroxy-2-(4-methoxy-benzenesulfonyl)-2-methyl-3-[4-(2-N,N-diethylamino-ethoxy)-phenyl]-propionamide] | 39%
COc1ccc(S(=O)(=O)C(Cc2ccccc2)C(=O)NO)cc1 (centres unmarked) [Example 9, N-Hydroxy-2-(4-methoxy-benzenesulfonyl)-3-phenyl-propionamide] | 20.3%
COc1ccc([S+]([O-])C(C(=O)NO)c2ccccc2)cc1 (centres unmarked) [Example 8, N-Hydroxy-2-(4-methoxy-benzenesulfinyl)-2-phenyl-acetamide] | 47%
C=CCC(CC=C)(C(=O)NO)S(=O)(=O)c1ccc(OC)cc1 [Example 58, 2-allyl-2-(4-methoxy-benzenesulfonyl)-pent-4-enoic acid hydroxyamide] | 7.7%
CCCCOc1ccc(S(=O)(=O)C2(C(=O)NO)CCN(Cc3ccc(F)cc3)CC2)cc1 [Example 100, 1-(4-Fluoro-benzyl)-4-(4-butoxy-benzenesulfonyl)-piperidine-4-carboxylic acid hydroxyamide] | 39.5%
COc1ccc(CS(=O)(=O)C(C)(Cc2ccccc2)C(=O)NO)cc1 (centres unmarked) [Example 41, N-Hydroxy-2-(4-methoxy-phenylmethanesulfonyl)-2-methyl-3-phenyl propionic acid hydroxamide] | 15.5%

Other lines, results leading:

inhibition at 1 µM | Compound
25.4% | CCN1CCC(C(=O)NO)(S(=O)(=O)c2ccc(OC)cc2)CC1 [Example 95, 1-Ethyl-4-(4-methoxy-benzenesulfonyl)-piperidine-4-carboxylic acid hydroxyamide]
20.2% | COc1ccc(S(=O)(=O)C2(C(=O)NO)CCN(C)CC2)cc1 [Example 97, 1-Methyl-4-(4-methoxy-benzenesulfonyl)-piperidine-4-carboxylic acid hydroxyamide]
17.2% | COc1ccc(S(=O)(=O)C(C)(Cc2cccnc2)C(=O)NO)cc1 (centres unmarked) [Example 61, N-hydroxy-2-(4-methoxy-benzenesulfonyl)-2-methyl-3-pyridin-3-yl-propionamide]

Same assay, conditions: read-out: TACE IC 50

IC50 | Compound
197 nM | COc1ccc(CN2CCC(C(=O)NO)(S(=O)(=O)c3ccc(OC)cc3)CC2)cc1 [Example 101, 4-(4-methoxy-benzenesulfonyl)-1-(4-methoxy-benzyl)-piperidine-4-carboxylic acid hydroxyamide]
160 nM | COc1ccc(S(=O)(=O)C(Cc2ccc3ccccc3c2)C(=O)NO)cc1 (centres unmarked) [Example 40, N-Hydroxy-2-(4-methoxy-benzenesulfonyl)-3-naphthalen-2-yl-propionamide]
669 nM | CCCCCCCCC(Cc1cccnc1)(C(=O)NO)S(=O)(=O)c1ccc(OC)cc1 (centres unmarked) [Example 62, 2-(4-Methoxy-benzenesulfonyl)-2-pyridin-3-ylmethyl-decanoic acid hydroxyamide]

What follows are compounds tested against MMP 13 (Homo sapiens, UniProt P45452) (assay: MMP 13 inhibition (HTS; method not described)). Settings: read-out: MMP 13 % inhibition at 36 nM (HTS); 36 nM, HTS.
Format: biochemical

inhibition at 0.036 µM | Compound
18% | CCCCCCC(SCCc1ccccn1)C(=O)NO (centres unmarked) [Example 173, 2-(2-Pyridin-2-yl-ethylsulfanyl)-octanoic acid hydroxyamide]
-9% | CCCCCCC(C(=O)NO)S(=O)(=O)c1nccs1 (centres unmarked) [Example 195, 2-(Thiazol-2-ylsulfonyl)-octanoic acid hydroxyamide]

Same assay, conditions: read-out: MMP 13 % inhibition at 0.2 µM (HTS); 0.2 µM, HTS

Compound | inhibition at 0.2 µM
O=C(NO)C(Cc1cnc[nH]1)Sc1ccccc1Br (centres unmarked) [Example 152, 2-(2-bromo-benzenesulfanyl)-N-hydroxy-3-(3H-imidazol-4-yl)-propionamide] | 9%
N=C(N)NCCCC(C(=O)NO)S(=O)(=O)c1ccccc1Br (centres unmarked) [Example 159, 2-(2-Bromosulfonyl)-5-guanidino-pentanoic acid hydroxyamide] | 49%
O=C(CCC(C(=O)NO)S(=O)(=O)c1ccccc1C(F)(F)F)NO (centres unmarked) [Example 139, 4-Hydroxycarbamoyl-4-(2-trifluoromethyl-benzenesulfonyl)-butyric acid hydroxyamide] | 8%
CCCCCCCCC(C(=O)NO)S(=O)(=O)c1ccc(S(C)(=O)=O)cc1 (centres unmarked) [Example 145, 2-(4-methanesulfonyl-benzenesulfonyl)decanoic acid hydroxamide] | 45%
CSc1ccc(SC(COCc2ccccc2)C(=O)NO)cc1 (centres unmarked) [Example 146, 3-benzyloxy-N-hydroxy-2-(4-methanesulfanyl-benzenesulfanyl)-propionamide] | 68%
